Assay results: patent publication US9676784B2, “Fused imidazolyl derivatives, their preparation and use as medicaments” (LABORATORIOS DEL DR. ESTEVE S.A., priority 2013, dated 2017)
Structures can show the parent of a compound that is named as a salt.

Target: σ1-receptor (Cavia porcellus, UniProt Q60492)
Test: Binding assay for the σ1-receptor, [3H]-(+)-pentazocine, guinea pig brain membranes
Method: Guinea pig brains were homogenized in 10 vols. (w/v) of Tris-HCl 50 mM 0.32 M sucrose, pH 7.4, with a Kinematica Polytron PT 3000 at 15000 r.p.m. for 30 s. The homogenate was centrifuged at 1000 g for 10 min at 4° C. and the supernatants collected and centrifuged again at 48000 g for 15 min at 4° C. The pellet was resuspended in 10 volumes of Tris-HCl buffer (50 mM, pH 7.4), incubated at 37° C. for 30 min, and centrifuged at 48000 g for 20 min at 4° C. Following this, the pellet was re-suspended in fresh Tris-HCl buffer (50 mM, pH 7.4) and stored on ice until use.
The radioligand used was [^3H]-(+)-pentazocine at 5.0 nM and the final volume was 200 μl. The incubation was initiated with the addition of 100 μl of membrane at a final tissue concentration of approximately 5 mg tissue net weight/mL and the incubation time was 150 m. at 37° C. After incubation, the membranes were collected onto pretreated glass fiber filterplate (MultiScreen-FC, Millipore), with polyethylenimine 0.1%. […] Nonspecific binding was determined with 1 μM haloperidol.

σ1-receptor, sequence (Q60492 whole entry): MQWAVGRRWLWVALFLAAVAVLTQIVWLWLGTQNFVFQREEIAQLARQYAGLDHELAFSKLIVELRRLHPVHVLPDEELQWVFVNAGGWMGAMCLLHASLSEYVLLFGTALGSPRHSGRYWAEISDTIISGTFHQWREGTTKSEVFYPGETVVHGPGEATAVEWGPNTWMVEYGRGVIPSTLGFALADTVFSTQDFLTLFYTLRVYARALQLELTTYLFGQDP

CCNC(=O)Nc1ncc2n1CCCN(CC1CCCCC1)C2 [Example 1, 1-(8-(Cyclohexylmethyl)-6,7,8,9-tetrahydro-5H-imidazo[1,5-a][1,4]diazepin-3-yl)-3-ethylurea]
Ki: 179 nM

CCNC(=O)Nc1ncc2n1CCN(CC1CCCCC1)C2 [Example 2, 1-(7-(Cyclohexylmethyl)-5,6,7,8-tetrahydroimidazo[1,5-a]pyrazin-3-yl)-3-ethylurea]
Ki: 106 nM

CCCNC(=O)Nc1ncc2n1CCN(CC1CCCCC1)C2 [Example 3, 1-(7-(Cyclohexylmethyl)-5,6,7,8-tetrahydroimidazo[1,5-a]pyrazin-3-yl)-3-propylurea]
Ki: 71 nM

c1ccc(Nc2ncc3n2CCN(CC2CCCCC2)C3)cc1 [Example 5, 7-(Cyclohexylmethyl)-N-phenyl-5,6,7,8-tetrahydroimidazo[1,5-a]pyrazin-3-amine]
Ki: 8.2 nM

Fc1cc(F)cc(Nc2ncc3n2CCN(CC2CCCCC2)C3)c1 [Example 6, 7-(cyclohexylmethyl)-N-(3,5-difluorophenyl)-5,6,7,8-tetrahydroimidazo[1,5-a]pyrazin-3-amine]
Ki: 12 nM

COc1cccc(Nc2ncc3n2CCN(CC2CCCCC2)C3)c1 [Example 7, 7-(cyclohexylmethyl)-N-(3-methoxyphenyl)-5,6,7,8-tetrahydroimidazo[1,5-a]pyrazin-3-amine]
Ki: 13 nM

Fc1ccc(Nc2ncc3n2CCN(CC2CCCCC2)C3)cc1 [Example 8, 7-(cyclohexylmethyl)-N-(4-fluorophenyl)-5,6,7,8-tetrahydroimidazo[1,5-a]pyrazin-3-amine]
Ki: 8 nM

Fc1c(Cl)cccc1Nc1ncc2n1CCN(Cc1ccccc1)C2 [Example 9, 7-benzyl-N-(3-chloro-2-fluorophenyl)-5,6,7,8-tetrahydroimidazo[1,5-a]pyrazin-3-amine]
Ki: 232 nM

c1ccc(Nc2ncc3n2CCN(CC2CCOCC2)C3)cc1 [Example 12, N-phenyl-7-((tetrahydro-2H-pyran-4-yl)methyl)-5,6,7,8-tetrahydroimidazo[1,5-a]pyrazin-3-amine]
Ki: 258 nM

COc1cccc(Nc2ncc3n2CCCN(CC2CCOCC2)C3)c1 [Example 15, N-(3-methoxyphenyl)-8-((tetrahydro-2H-pyran-4-yl)methyl)-6,7,8,9-tetrahydro-5H-imidazo[1,5-a][1,4]diazepin-3-amine]
Ki: 266 nM

Fc1ccc(Nc2ncc3n2CCCN(CC2CCOCC2)C3)cc1 [Example 16, N-(4-fluorophenyl)-8-((tetrahydro-2H-pyran-4-yl)methyl)-6,7,8,9-tetrahydro-5H-imidazo[1,5-a][1,4]diazepin-3-amine]
Ki: 175 nM

Fc1c(Cl)cccc1Nc1ncc2n1CCCN(CC1CCOCC1)C2 [Example 17, N-(3-chloro-2-fluorophenyl)-8-((tetrahydro-2H-pyran-4-yl)methyl)-6,7,8,9-tetrahydro-5H-imidazo[1,5-a][1,4]diazepin-3-amine]
Ki: 14 nM

Fc1cc(F)cc(Nc2ncc3n2CCCN(CC2CCOCC2)C3)c1 [Example 18, N-(3,5-difluorophenyl)-8-((tetrahydro-2H-pyran-4-yl)methyl)-6,7,8,9-tetrahydro-5H-imidazo[1,5-a][1,4]diazepin-3-amine]
Ki: 26 nM

Oc1cccc(Nc2ncc3n2CCN(Cc2ccccc2)C3)c1 [Example 19, 3-(7-benzyl-5,6,7,8-tetrahydroimidazo[1,5-a]pyrazin-3-ylamino)phenol]
Ki: 63 nM

Fc1ccc(CN2CCn3c(cnc3Nc3ccc(F)cn3)C2)cc1 [Example 20, 7-(4-fluorobenzyl)-N-(5-fluoropyridin-2-yl)-5,6,7,8-tetrahydroimidazo[1,5-a]pyrazin-3-amine]
Ki: 67 nM

Fc1ccc(Nc2ncc3n2CCN(Cc2ccccc2)C3)cc1 [Example 21, 7-benzyl-N-(4-fluorophenyl)-5,6,7,8-tetrahydroimidazo[1,5-a]pyrazin-3-amine]
Ki: 44 nM

CCC(=O)N(c1cccc(O)c1)c1ncc2n1CCN(Cc1ccccc1)C2 [Example 24, N-(7-benzyl-5,6,7,8-tetrahydroimidazo[1,5-a]pyrazin-3-yl)-N-(3-hydroxyphenyl)propionamide]
Ki: 124 nM

CCC(=O)N(c1cccc(O)c1)c1ncc2n1CCN(CCc1ccccc1)C2 [Example 25, N-(3-hydroxyphenyl)-N-(7-phenethyl-5,6,7,8-tetrahydroimidazo[1,5-a]pyrazin-3-yl)propionamide]
Ki: 358 nM

c1ccc(CNc2ncc3n2CCN(CC2CCCCC2)C3)cc1 [Example 27, N-Benzyl-7-(cyclohexylmethyl)-5,6,7,8-tetrahydroimidazo[1,5-a]pyrazin-3-amine]
Ki: 38 nM

c1ccc(Cc2ncc3n2CCN(CC2CCCCC2)C3)cc1 [Example 28, 3-Benzyl-7-(cyclohexylmethyl)-5,6,7,8-tetrahydroimidazo[1,5-a]pyrazine trifluoroacetate]
Ki: 39 nM

Fc1ccc(Cc2ncc3n2CCN(CC2CCCCC2)C3)cc1 [Example 30, 7-(cyclohexylmethyl)-3-(4-fluorobenzyl)-5,6,7,8-tetrahydroimidazo[1,5-a]pyrazine hydrochloride]
Ki: 22 nM

c1ccc(CCN2CCn3c(cnc3Nc3ccccc3)C2)cc1 [Example 31, 7-Phenethyl-N-phenyl-5,6,7,8-tetrahydroimidazo[1,5-a]pyrazin-3-amine]
Ki: 101 nM

Oc1cccc(Nc2ncc3n2CCN(CCc2ccccc2)C3)c1 [Example 34, 3-(7-phenethyl-5,6,7,8-tetrahydroimidazo[1,5-a]pyrazin-3-ylamino)phenol]
Ki: 168 nM

Fc1ccc(Nc2ncc3n2CCN(Cc2ccc(F)cc2F)C3)cc1 [Example 35, 7-(2,4-difluorobenzyl)-N-(4-fluorophenyl)-5,6,7,8-tetrahydroimidazo[1,5-a]pyrazin-3-amine]
Ki: 37 nM

Fc1ccc(Nc2ncc3n2CCN(CC2CCC(F)(F)CC2)C3)cc1 [Example 36, 7-((4,4-difluorocyclohexyl)methyl)-N-(4-fluorophenyl)-5,6,7,8-tetrahydroimidazo[1,5-a]pyrazin-3-amine]
Ki: 21 nM

Fc1ccc(Nc2ncc3n2CCN(Cc2ccc(F)cn2)C3)cc1 [Example 37, N-(4-fluorophenyl)-7-((5-fluoropyridin-2-yl)methyl)-5,6,7,8-tetrahydroimidazo[1,5-a]pyrazin-3-amine]
Ki: 293 nM

Fc1ccc(Nc2ncc3n2CCN(Cc2ccc(F)nc2)C3)cc1 [Example 38, N-(4-fluorophenyl)-7-((6-fluoropyridin-3-yl)methyl)-5,6,7,8-tetrahydroimidazo[1,5-a]pyrazin-3-amine]
Ki: 311 nM

COc1ccc(CN2CCn3c(cnc3Nc3ccc(F)cc3)C2)cn1 [Example 39, N-(4-fluorophenyl)-7-((6-methoxypyridin-3-yl)methyl)-5,6,7,8-tetrahydroimidazo[1,5-a]pyrazin-3-amine]
Ki: 373 nM

Fc1ccc(Nc2ncc3n2CCN(C2CCCCC2)C3)cc1 [Example 40, 7-cyclohexyl-N-(4-fluorophenyl)-5,6,7,8-tetrahydroimidazo[1,5-a]pyrazin-3-amine]
Ki: 68 nM
